Experiments:
[1] = tested on: Shigella sonnei; experiment: Disc diffusion, zones of inhibition in culture medium; type: cell-based; conditions: G = Shigella sonnei, average of four repetitions
Experimental: (§1) […]. Select mutants resistant to the antibiotic rifampicin (R+) to eliminate the interference of the native microbial flora of Hibiscus acid and derivatives (Castro-Rosas and Escartín, 2000). Maintain the R+ strains at 4-7° C. on blood-based agar (ABS, Merck®, Germany) with biweekly transfers, activating tripticasein soy broth (CST, Bioxon®, Mexico) with incubation at 35° C./24 h.
(§2) Prepare cultures of each one of the R+ study bacteria in tubes of 13×100 mm containing 3 ml of Tripticasein Soy Broth (TSB) incubating at 35° C. for 24 hours. Subsequently, centrifuge the cultures at 3500 rpm for 20 minutes. Then discard the supernatant and resuspend the cell pack by adding 3 ml of sterile isotonic saline solution (ISS) and agitate in vortex for 10 seconds. Repeat the previous procedure two more times. Subsequently, dilute each culture of the washed strains in a decimal proportion with ISS.
(§3) From the dry fractions (collections) prepare aqueous solutions using a solution of Polysorbate 80:water that was previously prepared in a ratio of 20:80. To this solution of polysorbate 80:water, add each dry fraction or chromatographic collection separately in a 1:9 ratio, in clean jars.
(§4) Separately, place 100 μL of the first dilution of the washed and diluted cultures on boxes of Agar Soya Tripticasa (AST) supplemented with 100 mg/L of the antibiotic rifampin; distribute the inoculum over the entire surface of the agar using the surface extension technique. Place on the inoculated boxes, separately, filter paper discs of a size of 0.5 cm and on the disks place aliquots of 10 μL of the solution of the chromatographic fractions. Perform four repetitions for each treatment. After the aliquots of the fractions or collections are absorbed by the agar, incubate the culture boxes at 35° C. for 24 hours.

[2] = tested on: Pseudomonas aeruginosa; experiment: as above; type: cell-based; conditions: column L, average of four repetitions
Experimental: as §1, §2, §3, §4

[3] = tested on: Salmonella choleraesuis; experiment: as above; type: cell-based; conditions: column F, average of four repetitions
Experimental: as §1, §2, §3, §4

[4] = tested on: Shigella flexneri; experiment: as above; type: cell-based; conditions: H = Shigella flexneri, average of four repetitions
Experimental: as §1, §2, §3, §4

[5] = tested on: V. cholerae O1; experiment: as above; type: cell-based; conditions: M = V. cholerae O1, average of four repetitions
Experimental: as §1, §2, §3, §4

[6] = tested on: Staphylococcus aureus; experiment: as above; type: cell-based; conditions: K = Staphylococcus aureus, average of four repetitions
Experimental: as §1, §2, §3, §4

[7] = tested on: Listeria monocytogenes; experiment: as above; type: cell-based; conditions: I = Listeria monocytogenes, average of four repetitions
Experimental: as §1, §2, §3, §4

[8] = tested on: Salmonella Typhimurium R+; experiment: as above; type: cell-based; conditions: E = Salmonella Typhimurium R+ (resistant to 14 antibiotics), average of four repetitions
Experimental: as §1, §2, §3, §4

[9] = tested on: L. monocytogenes scott A; experiment: as above; type: cell-based, Listeria monocytogenes; conditions: J = L. monocytogenes scott A, average of four repetitions
Experimental: as §1, §2, §3, §4

[10] = tested on: E. coli enterotoxigenic; experiment: as above; type: cell-based, Escherichia coli; conditions: C = E. coli enterotoxigenic, average of four repetitions
Experimental: as §1, §2, §3, §4

[11] = tested on: E. coli enteroinvasive; experiment: as above; type: cell-based, Escherichia coli; conditions: B = E. coli enteroinvasive, average of four repetitions
Experimental: as §1, §2, §3, §4

[12] = tested on: E. coli enteropathogenic; experiment: as above; type: cell-based, Escherichia coli; conditions: D = E. coli enteropathogenic, average of four repetitions
Experimental: as §1, §2, §3, §4

[13] = tested on: E coli O157H7; experiment: as above; type: cell-based, Escherichia coli; conditions: A = E coli O157H7, average of four repetitions
Experimental: as §1, §2, §3, §4

[14] = tested on: 13 different microorganisms; experiment: Antimicrobial effect in culture medium, whole panel; type: cell-based; conditions: against the control; all study microorganisms
Experimental: as §1, §2
From the dry fractions (collections) prepare aqueous solutions using a solution of Polysorbate 80:water that was previously prepared in a ratio of 20:80. To this solution of polysorbate 80:water, add each dry fraction or chromatographic collection separately in a 1:9 ratio, in clean jars. […]

Row | SMILES | Zones of inhibition [1] [mm] | Zones of inhibition [2] [mm] | Zones of inhibition [3] [mm] | Zones of inhibition [4] [mm] | Zones of inhibition [5] [mm] | Zones of inhibition [6] [mm] | Zones of inhibition [7] [mm] | Zones of inhibition [8] [mm] | Zones of inhibition [9] [mm] | Zones of inhibition [10] [mm] | Zones of inhibition [11] [mm] | Zones of inhibition [12] [mm] | Zones of inhibition [13] [mm] | antimicrobial effect (zone of inhibition, in words) [14]
1 | COC(=O)[C@H]1OC(=O)C[C@]1(O)C(=O)OC [Compound 3, di-ester methyl of hibiscus acid] | 8 | 8 | 8 | 8 | 10 | 8 | 8 | 8 | 8 | 8 | 8 | 8 | 8 | –
2 | CCOC(=O)[C@H]1OC(=O)C[C@]1(O)C(=O)OCC [Compound 5, di-ester ethyl of hibiscus acid] | 6 | 6 | 6 | 6 | 8 | 6 | 6 | 6 | 6 | 6 | 6 | 6 | 6 | –
3 | O=C1C[C@](O)(C(=O)O)[C@@H](C(=O)O)O1 [Compound 1, hibiscus acid] | 10 | 10 | 10 | 10 | 14 | 10 | 10 | 12 | 10 | 10 | 12 | 11 | 10 | maximum zone of inhibition
4 | CCOC(=O)C[C@](O)(C(=O)OCC)[C@@H](O)C(=O)OCC [Compound 6, tri-ethyl ester of hydroxycitric acid] | 5 | 5 | 5 | 5 | 6 | 5 | 5 | 5 | 5 | 5 | 5 | 5 | 5 | lowest
5 | COC(=O)[C@@]1(O)CC(=O)O[C@@H]1C(=O)O [Compound 2, mono ester methyl of hibiscus acid] | 10 | 8 | 10 | 10 | 12 | 10 | 8 | 10 | 8 | 10 | 10 | 10 | 10 | –
6 | CCOC(=O)[C@@]1(O)CC(=O)O[C@@H]1C(=O)O [Compound 4, mono ester ethyl of hibiscus acid] | 6 | 6 | 6 | 6 | 8 | 6 | 6 | 6 | 6 | 6 | 6 | 6 | 6 | –
